# Target: T1, human BTK (Homo sapiens, UniProt Q06187)
# T1 construct: GST (Glutathione-S-Transferase) (cleaved yes); made in house; host or cells: Spodoptera frugiperda Sf9 cells (baculovirus, Bac-to-Bac)
# Assay: BTK inhibition assay: BTK-mediated phosphorylation of FAM-labeled substrate 5-FAM-EEPLYWSFPAKKK-NH2 (Caliper LC-3000)
# Type: biochemical
# Conditions: pIC50 = -log(IC50), IC50 molar; residues 382 to 659 of human BTK; incubated at room temperature for 60 minutes; larger values represent higher potency
# Description: The activity of compounds as BTK inhibitors may be determined by a variety of methods, including in vitro and in vivo methods.
# This construct engineers an in-frame translational fusion with the Glutathione-S-Transferase (GST) protein for use in affinity purification. The fusion protein derived from this construct contains a protease recognition sequence to liberate the BTK from the GST affinity tag. High-titer baculoviral stocks, generated using the Bac-to-Bac® system (Invitrogen), are used to express the recombinant protein in Spodoptera frugiperda Sf9 cells in 10 L Wave bags. Recombinant proteins are isolated from cellular extracts by passage over Glutathione Sepharose 4B (GE Healthcare) and the BTK moiety is released from the GST affinity tag by treatment with PreScission protease. The BTK recombinant protein is further purified by size exclusion chromatography (HiLoad 16/60 Superdex 200, GE Healthcare) in a buffer containing 20 mM Hepes (pH 7.4), 50 mM NaCl, 10 mM MgCl2, 0.25 mM TCEP and 0.1 mM EDTA. The purity of the fractions is assessed by SDS PAGE and the peak protein fractions are pooled and concentrated using Amicon Ultra-15 Centrifugal Filter Devices (Millipore).
# The inhibitory properties of compounds relative to BTK is determined using a black 384-well-plate format in a buffer which contains 50 mM Hepes, 10 mM NaCl, 10 mM MgCl2, 0.2 mM EDTA, 0.01% Brij35®, 1 mM DTT, and 0.1 mg/mL BSA at pH 7.3. The test compound is prepared in DMSO using 2-fold serial dilutions for 11 data points, which are added to the buffer so that each dilution contains 3% DMSO. […] The reaction mixtures are incubated at room temperature for 60 minutes and then quenched by adding 25 μL of 50 mM EDTA. To quantify the fluorescent-labeled substrate and product following reaction, the test plate is loaded on a Caliper LC-3000, which measures percent of conversion by microfluidic-based separation.
# The compounds were tested in accordance with the assay described on page 34 of the specification.
# T1 sequence (Q06187 382-659): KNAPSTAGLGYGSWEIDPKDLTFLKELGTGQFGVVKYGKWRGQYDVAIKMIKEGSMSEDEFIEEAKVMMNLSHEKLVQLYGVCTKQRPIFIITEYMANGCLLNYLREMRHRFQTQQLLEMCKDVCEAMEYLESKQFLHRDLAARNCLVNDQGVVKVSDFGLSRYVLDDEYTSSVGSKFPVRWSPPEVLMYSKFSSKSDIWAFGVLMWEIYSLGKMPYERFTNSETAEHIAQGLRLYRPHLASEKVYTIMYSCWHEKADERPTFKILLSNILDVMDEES
row,Compound,IC50
1,"CN1CCc2cc(-c3cccc4c(N)c(C(N)=O)nnc34)ccc21 [Example 7, 4-amino-8-(1-methylindolin-5-yl)cinnoline-3-carboxamide]",5010 nM
2,"COc1ccc(-c2cc3[nH]ncc3cc2C)c2nnc(C(N)=O)c(N)c12 [Example 39, 4-amino-5-methoxy-8-(5-methyl-1H-indazol-6-yl)cinnoline-3-carboxamide]",7.94 nM
3,"Cc1ccc2c(N)c(C(N)=O)nnc2c1-c1ccc2cn[nH]c2c1 [Example 28, 4-amino-8-(1H-indazol-6-yl)-7-methylcinnoline-3-carboxamide]",7.94 nM
4,"Cn1ncc2cc(-c3cccc4c(N)c(C(N)=O)nnc34)ccc21 [Example 2, 4-amino-8-(1-methyl-1H-indazol-5-yl)cinnoline-3-carboxamide]",158 nM
5,"Cc1ccc2c(N)c(C(N)=O)nnc2c1-c1ccc2ncn(C)c2c1 [Example 23, 4-amino-7-methyl-8-(1-methyl-1H-benzo[d]imidazol-6-yl)cinnoline-3-carboxamide]",50.1 nM
6,"Cn1ncc2cc(-c3c(C(F)(F)F)ccc4c(N)c(C(N)=O)nnc34)ccc21 [Example 35, 4-amino-8-(1-methyl-1H-indazol-5-yl)-7-(trifluoromethyl)cinnoline-3-carboxamide]",79.4 nM
7,"Cc1ccc2c(N)c(C(N)=O)nnc2c1-c1ccc2[nH]ccc2c1 [Example 24, 4-amino-8-(1H-indol-5-yl)-7-methylcinnoline-3-carboxamide]",251 nM
8,"Cn1ncc2ccc(-c3cccc4c(N)c(C(N)=O)nnc34)cc21 [Example 1, 4-amino-8-(1-methyl-1H-indazol-6-yl)cinnoline-3-carboxam]",1580 nM
9,"NC(=O)c1nnc2c(-c3ccc4nccn4c3)cccc2c1N [Example 10, 4-amino-8-(imidazo[1,2-a]pyridin-6-yl)cinnoline-3-carboxamide]",631 nM
10,"NC(=O)c1nnc2c(-c3ccc4cn[nH]c4c3)c(Cl)ccc2c1N [Example 54, 4-amino-7-chloro-8-(1H-indazol-6-yl)cinnoline-3-carboxamide]",15.8 nM
11,"COc1ccc2c(N)c(C(N)=O)nnc2c1-c1ccc2[nH]ncc2c1 [Example 51, 4-amino-8-(1H-indazol-5-yl)-7-methoxycinnoline-3-carboxamide]",12.6 nM
12,"Cc1ccc2c(N)c(C(N)=O)nnc2c1-c1ccc2cc[nH]c2c1 [Example 26, 4-amino-8-(1H-indol-6-yl)-7-methylcinnoline-3-carboxamide]",158 nM
13,"Cc1nc2ccc(-c3cccc4c(N)c(C(N)=O)nnc34)cc2[nH]1 [Example 16, 4-amino-8-(2-methyl-1H-benzo[d]imidazol-6-yl)cinnoline-3-carboxamide]",794 nM
14,"Cn1cc2cc(-c3cccc4c(N)c(C(N)=O)nnc34)ccc2n1 [Example 11, 4-amino-8-(2-methyl-2H-indazol-5-yl)cinnoline-3-carboxamide]",1000 nM
15,"CC(C)n1cnc2cc(-c3cccc4c(N)c(C(N)=O)nnc34)ccc21 [Example 17, 4-amino-8-(1-isopropyl-1H-benzo[d]imidazol-5-yl)cinnoline-3-carboxamide]",50100 nM
16,"COc1ccc(-c2ccc3cn[nH]c3c2)c2nnc(C(N)=O)c(N)c12 [Example 38, 4-amino-8-(1H-indazol-6-yl)-5-methoxycinnoline-3-carboxamide]",39.8 nM

# The remaining lines, values ahead:
row,IC50,Compound
1,79.4 nM,"CC1CCC(Nc2nc3ccc(-c4cccc5c(N)c(C(N)=O)nnc45)cc3[nH]2)CC1 (stereo not drawn) [Example 91, 4-amino-8-(2-(4-methylcyclohexylamino)-1H-benzo[d]imidazol-6-yl)cinnoline-3-carboxamide]"
2,7.94 nM,"NC(=O)c1nnc2c(-c3ccc4nc(NCC5CCCC5)[nH]c4c3)cccc2c1N [Example 93, 4-amino-8-(2-(cyclopentylmethylamino)-1H-benzo[d]imidazol-6-yl)cinnoline-3-carboxamide]"
3,100 nM,"NC(=O)c1nnc2c(-c3ccc4nc(Nc5ccccc5)[nH]c4c3)cccc2c1N [Example 87, 4-amino-8-(2-(phenylamino)-1H-benzo[d]imidazol-6-yl)cinnoline-3-carboxamide]"
4,631 nM,"CC(C)(C)Cc1nc2ccc(-c3cccc4c(N)c(C(N)=O)nnc34)cc2[nH]1 [Example 66, 4-amino-8-(2-neopentyl-1H-benzo[d]imidazol-6-yl)cinnoline-3-carboxamide]"
5,3.98 nM,"COc1cc2cn[nH]c2cc1-c1cccc2c(N)c(C(N)=O)nnc12 [Example 110, 4-amino-8-(5-methoxy-1H-indazol-6-yl)cinnoline-3-carboxamide]"
6,20 nM,NC(=O)c1nnc2c(-c3ccc4c(c3)CNC4=O)cccc2c1N [Example 122]
7,126 nM,"N#Cc1ccc2c(N)c(C(N)=O)nnc2c1-c1ccc2cn[nH]c2c1 [Example 135, 4-amino-7-cyano-8-(1H-indazol-6-yl)cinnoline-3-carboxamide]"
8,20 nM,"Cc1ccc2c(N)c(C(N)=O)nnc2c1-c1ccc2cncn2c1 [Example 113, 4-amino-8-(imidazo[1,5-a]pyridin-6-yl)-7-methylcinnoline-3-carboxamide]"
9,2 nM,"COc1cc2[nH]ncc2cc1-c1ccc(F)c2c(N)c(C(N)=O)nnc12 [Example 109, 4-amino-5-fluoro-8-(6-methoxy-1H-indazol-5-yl)cinnoline-3-carboxamide]"
10,200 nM,"N#Cc1nc2ccc(-c3cccc4c(N)c(C(N)=O)nnc34)cc2[nH]1 [Example 130, 4-amino-8-(2-cyano-1H-benzo[d]imidazol-6-yl)cinnoline-3-carboxamide]"
11,398 nM,"NC(=O)c1nnc2c(-c3ccc4nc(C5CCC(F)(F)CC5)[nH]c4c3)cccc2c1N [Example 84, 4-amino-8-(2-(4,4-difluorocyclohexyl)-1H-benzo[d]imidazol-6-yl)cinnoline-3-carboxamide]"
12,200 nM,"NC(=O)c1nnc2c(-c3ccc4nc(-c5cncs5)[nH]c4c3)cccc2c1N [Example 82, 4-amino-8-(2-(thiazol-5-yl)-1H-benzo[d]imidazol-6-yl)cinnoline-3-carboxamide]"
13,316 nM,"NC(=O)c1nnc2c(-c3ccc4nc(-c5cccs5)[nH]c4c3)cccc2c1N [Example 79, 4-amino-8-(2-(thiophen-2-yl)-1H-benzo[d]imidazol-6-yl)cinnoline-3-carboxamide]"
14,2510 nM,"NC(=O)c1nnc2c(-c3ccc4nc(CC5CCOCC5)[nH]c4c3)cccc2c1N [Example 81, 4-amino-8-(2-((tetrahydro-2H-pyran-4-yl)methyl)-1H-benzo[d]imidazol-6-yl)cinnoline-3-carboxamide]"
15,15.8 nM,"NC(=O)c1nnc2c(-c3ccc4nc(NCc5ccccc5)[nH]c4c3)cccc2c1N [Example 90, 4-amino-8-(2-(benzylamino)-1H-benzo[d]imidazol-6-yl)cinnoline-3-carboxamide]"
16,7.94 nM,"Cc1cc(F)c2c(N)c(C(N)=O)nnc2c1-c1ccc2[nH]ncc2c1 [Example 60, 4-amino-5-fluoro-8-(1H-indazol-5-yl)-7-methylcinnoline-3-carboxamide]"
17,1000 nM,"CN(Cc1ccccc1)c1nc2ccc(-c3cccc4c(N)c(C(N)=O)nnc34)cc2[nH]1 [Example 92, 4-amino-8-(2-(benzyl(methyl)amino)-1H-benzo[d]imidazol-6-yl)cinnoline-3-carboxamide]"
18,79.4 nM,"NC(=O)c1nnc2c(-c3ccc4nc(-c5ccccc5Cl)[nH]c4c3)cccc2c1N [Example 70, 4-amino-8-(2-(2-chlorophenyl)-1H-benzo[d]imidazol-6-yl)cinnoline-3-carboxamide]"
19,1000 nM,"NC(=O)c1nnc2c(N3CCc4cn[nH]c4C3)cccc2c1N [Example 85, 4-amino-8-(4,5-dihydro-1H-pyrazolo[3,4-c]pyridin-6(7H)-yl)cinnoline-3-carboxamide]"
20,39.8 nM,"NC(=O)c1nnc2c(-c3ccc4c(c3)CNC4=O)ccc(F)c2c1N [Example 125, 4-amino-5-fluoro-8-(1-oxoisoindolin-5-yl)cinnoline-3-carboxamide]"
21,31.6 nM,"Cc1ccc2c(N)c(C(N)=O)nnc2c1-c1cc(F)c2nc[nH]c2c1 [Example 101, 4-amino-8-(4-fluoro-1H-benzo[d]imidazol-6-yl)-7-methylcinnoline-3-carboxamide]"
22,100 nM,"NC(=O)c1nnc2c(-c3ccc4nc(-c5ccc(F)cc5F)[nH]c4c3)cccc2c1N [Example 118, 4-amino-8-(2-(2,4-difluorophenyl)-1H-benzo[d]imidazol-6-yl)cinnoline-3-carboxamide]"
23,10 nM,"Cc1cc(-c2cc3[nH]ncc3cc2C)c2nnc(C(N)=O)c(N)c2c1 [Example 64, 4-amino-6-methyl-8-(5-methyl-1H-indazol-6-yl)cinnoline-3-carboxamide]"
